Six compounds from ChEMBL document CHEMBL3627683, “Effective Two-Photon Excited Photodynamic Therapy of Xenograft Tumors Sensitized by Water-Soluble Bis(arylidene)cycloalkanone Photosensitizers” (J Med Chem, 2015) can be followed below.

The nature of series [1]: Therapeutic ratio of TC50 for human HepG2 cells to IC50 for human HepG2 cells under irradiation at 800 nm. In kind it is ADME, cell-based. To be noted: read-out: TI.
Series [2] in a line: Therapeutic ratio of TC50 for human HepG2 cells to IC50 for human HepG2 cells under irradiation at […]. It is filed as ADME, cell-based. The conditions noted are these: read-out: TI.
The test system of series [3] is HepG2. Briefly: Photocytotoxicity against human HepG2 cells assessed as cell viability preincubated for 4 hrs in dark condition followed by irradiation at 532 nm for 20 mins measured 24 hrs post incubation in dark condition by CCK-8 assay. In kind it is functional, cell-based. The conditions noted are these: HepG2, light or radiation study. Background: Tetrazolium dyes change colour on reduction, which living cells bring about.

Series [4] is described as follows: Drug uptake in mitochondria of human HepG2 cells by MitoLite NIR staining-based CLSM analysis. In kind it is ADME. To be noted: TDE = time-dependent effect.
Series [5] relates to HepG2. Briefly: Photocytotoxicity against human HepG2 cells assessed as cell viability preincubated for 4 hrs in dark condition followed by irradiation at 800 nm for 10 mins measured 24 hrs post incubation in dark condition by CCK-8 assay. In kind it is functional, cell-based. To be noted: HepG2, light or radiation study.
A short description of series [6]: Dark toxicity in human HepG2 cells assessed as cell viability measured after 24 hrs by CCK-8 assay. It is filed as cell-based. The conditions noted are these: read-out: TC50.
The nature of series [7]: Drug uptake in mitochondria of human HepG2 cells at 5 uM for 4 hrs by MitoLite NIR staining-based CLSM analysis. It is filed as ADME. The conditions noted are these: hepg2, 4 h.
The nature of series [8]: Octanol-water partition coefficient, log P of the compound. It is filed as physicochemical.
Series [9] is described as follows: Solubility of the compound in PBS. It is filed as physicochemical.
Series [10] has as its system CCRF S-180. Briefly: Antitumor activity against mouse S180 cells implanted in BALB/c mouse assessed as tumor growth inhibition at 17.5 mg/kg, iv administered 3 hrs followed by irradiation at 800 nm for 25 mins measured every other day until 12 days relative to control. In kind it is functional. The conditions noted are these: CCRF S-180, light or radiation study, read-out: TGI.

In series [11] the test system is HepG2. Kind of series: Induction of ROS generation in human HepG2 cells at 5 uM preincubated for 4 hrs followed by DCFH-DA addition for 0.5 hrs and irradiation at 800 nm for 10 mins measured by CLSM. In kind it is functional, cell-based.
For series [12], the system named is HepG2. Briefly: Induction of ROS generation in human HepG2 cells at 5 uM preincubated for 4 hrs followed by DCFH-DA addition for 0.5 hrs in absence of irradiation measured by CSLM. It is filed as functional, cell-based.
The test system of series [13] is CCRF S-180. Briefly: Drug uptake in mouse S180 cells implanted in BALB/c mouse at 17.5 mg/kg, iv measured within 3 hrs by CSLM analysis. In kind it is ADME, organism-based. The conditions noted are these: in vivo.
Series [14] concerns CCRF S-180. Kind of series: Drug uptake in mouse S180 cells implanted in BALB/c mouse at 17.5 mg/kg, iv measured at 3 to 24 hrs by CSLM analysis. It is filed as ADME, organism-based. The conditions noted are these: in vivo.
Series [15] relates to CCRF S-180. Briefly: Antitumor activity against mouse S180 cells implanted in BALB/c mouse assessed as prolongation of survival at 17.5 mg/kg, iv administered 3 hrs followed by irradiation at 800 nm for 25 mins measured by Kaplan-Meier analysis. It is filed as functional, organism-based.
A further series has as its system Mus musculus. Kind of series: Induction of blood vessels blockage in BALB/c mouse dorsal skinfold window chamber model at 17.5 mg/kg, iv irradiated at 800 nm for 5 mins monitored by stereomicroscopic analysis. The conditions noted are these: Blood vessel. It is filed as functional, organism-based.
Series [16] deals with CCRF S-180. Briefly: Antitumor activity against mouse S180 cells implanted in BALB/c mouse assessed as tumor growth inhibition at 17.5 mg/kg, iv administered 3 hrs followed by irradiation at 800 nm for 25 mins measured every other day until 12 days […]. It is filed as functional, organism-based.
Series [17] relates to CCRF S-180. Briefly: Antitumor activity against mouse S180 cells implanted in BALB/c mouse assessed as prolongation of survival at 17.5 mg/kg, iv administered 3 hrs in the absence of irradiation measured by Kaplan-Meier analysis. In kind it is functional, organism-based.

In general, IC50 refers to the concentration at which inhibition is half-maximal. One may read the logP as a log measure of how a compound divides between an organic and an aqueous phase. High values mean a more lipophilic compound, low ones a more hydrophilic compound. In general, solubility refers to the dissolved amount per volume that the medium holds.

≈ marks a conversion by molar mass, not a printed value. Calls of active or inactive are those of the source. No cut-off for these calls is given here.

`COCCOCCOCCOCCOCCN(C)c1ccc(/C=C2\CC/C(=C\c3ccc(N(C)CCOCCOCCOCCOCCOC)cc3)C2=O)cc1`: the results for the selectivity ratio in series [1] and in series [2] were 2.79 and 16, respectively. Also, the IC50 in the series on HepG2 [3] amounted to 2.59 µM; with HepG2 [5], 14.9 µM. Besides, the results for the Drug uptake result in series [4] and in series [7] were “tde” and “Active”, respectively. Moreover, the CC50 at 24 h in [6] was 41.5 µM. For the same compound, the logP in series [8] worked out at 2.73. In [9], the solubility is above 100 mg/mL.
On to `CCN(CC)c1ccc(C=C2CC(=Cc3ccc(N(CCOCCOCCOCCOCCOC)CCOCCOCCOCCOCCOC)cc3)C2=O)cc1`, for which the inhibition in vivo at 17.5 mg/kg in the series on CCRF S-180 [10] was determined as 43%. The selectivity ratio in [1] is 9.13; in [2], 25.5. Also, the IC50 in the series on HepG2 [3] worked out at 1.41 µM; in the series with HepG2 [5], 3.93 µM. Besides, the result in the series on HepG2 [11], in the series with CCRF S-180 [15] and with Mus musculus was Active. The Drug uptake entry is “tde” in [4], “Active” with CCRF S-180 [13], “Not Active” in the series on CCRF S-180 [14] and “Active” in series [7]. For the same compound, the outcome in the series on HepG2 [12] and with CCRF S-180 [17] was inactive. Moreover, in [6], the CC50 at 24 h is 35.9 µM. Further, in the series on CCRF S-180 [16], the TGI result is “inactive”. This compound also returned a logP in series [8] of 3.04. Moreover, the solubility in [9] was above 100 mg/mL.
For the compound `COCCOCCOCCOCCOCCN(C)c1ccc(C=C2CC(=Cc3ccc(N(C)CCOCCOCCOCCOCCOC)cc3)C2=O)cc1`, the selectivity ratio stood at 2.49 in [1] and 13.6 in [2]. Besides, the IC50 in the series with HepG2 [3] was 3.07 µM; with HepG2 [5] it was 16.8 µM. Moreover, the figures for the Drug uptake entry in series [4] and in series [7] were “tde” and “Active”, respectively. The CC50 at 24 h in series [6] came out at 41.9 µM. The compound further showed a logP in [8] of 2.54. The same compound came in with a solubility in series [9] above 100 mg/mL.
In the case of `COCCOCCOCCOCCN(C)c1ccc(C=C2CC(=Cc3ccc(N(C)CCOCCOCCOCCOC)cc3)C2=O)cc1`, the figures for the selectivity ratio in series [1] and in [2] were 2.58 and 15, respectively. For the same compound, the IC50 with HepG2 [3] was determined as 2.26 µM; with HepG2 [5], 13.2 µM. The Drug uptake entry in series [4] was “tde”; in series [7] it was “Active”. In addition, the CC50 at 24 h in series [6] amounted to 34 µM. Moreover, the log partition coefficient (logP) in [8] turned out to be 2.86. Further, the solubility in series [9] was found to be 0.3 mg/mL (≈ 0.438 mM).
In the case of `CCN(CC)c1ccc(/C=C2\CC/C(=C\c3ccc(N(CCOCCOCCOCCOCCOC)CCOCCOCCOCCOCCOC)cc3)C2=O)cc1`, the figures for the selectivity ratio in series [1] and in [2] were 4.48 and 13, respectively. Further, the IC50 in the series with HepG2 [3] stood at 1.61 µM; with HepG2 [5] it was 4.66 µM. The Drug uptake result in series [4] is “tde”; in series [7], “Active”. The CC50 at 24 h in [6] is 20.9 µM. This compound showed a logP in [8] of 3.2. The solubility in series [9] is above 100 mg/mL.
Regarding `CCN(CC)c1ccc(C=C2CC(=Cc3ccc(N(CCOCCOCCOCCOC)CCOCCOCCOCCOC)cc3)C2=O)cc1`, the selectivity ratio is 12.8 in series [1] and 18.9 in series [2]. In addition, the IC50 in the series with HepG2 [3] came out at 1.27 µM; in the series on HepG2 [5], 1.87 µM. Also, the Drug uptake result was “tde” in [4] and “Active” in series [7]. Besides, the CC50 at 24 h in series [6] was found to be 24 µM. Also, in [8], the logP stood at 3.2. The compound further came in with a solubility in series [9] of 1.8 mg/mL (≈ 2.52 mM).
